Assay results reported in ChEMBL document CHEMBL1130872, “Neuronorm is a potent and water soluble neurokinin A receptor antagonist” (Bioorg Med Chem Lett, 1998).

How the values were obtained:
[1] = molecular target: T1, Substance-K receptor (Cavia porcellus) (UniProt Q64077); assay: Antagonist Activity of compound (100 nM) at Tachykinin receptor 2 at guinea pig trachea in the presence of P-Ala8-NKA[4-IO] as agonist; format: functional
T1 sequence (whole entry): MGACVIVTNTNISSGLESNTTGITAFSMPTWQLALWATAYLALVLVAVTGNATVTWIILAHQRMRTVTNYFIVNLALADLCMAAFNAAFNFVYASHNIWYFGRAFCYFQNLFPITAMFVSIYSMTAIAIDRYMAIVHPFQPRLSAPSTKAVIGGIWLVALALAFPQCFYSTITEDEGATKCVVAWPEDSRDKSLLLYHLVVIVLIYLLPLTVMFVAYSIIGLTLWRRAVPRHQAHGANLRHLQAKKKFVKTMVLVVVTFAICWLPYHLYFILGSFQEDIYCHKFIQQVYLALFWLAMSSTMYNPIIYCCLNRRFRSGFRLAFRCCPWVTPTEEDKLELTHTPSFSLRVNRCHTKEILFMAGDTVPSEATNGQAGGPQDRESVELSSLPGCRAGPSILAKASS

[2] = molecular target: T1, Substance-K receptor (Cavia porcellus); assay: Antagonist Activity of compound (10 nM) at Tachykinin receptor 2 at guinea pig trachea in the presence of P-Ala8-NKA[4-IO] as agonist; format: functional
[3] = molecular target: T1, Substance-K receptor (Cavia porcellus); assay: Antagonist Activity of compound (30 nM) at Tachykinin receptor 2 at guinea pig trachea in the presence of P-Ala8-NKA[4-IO] as agonist; format: functional
Substance-K receptor = molecular target: T2, Substance-K receptor (Cavia porcellus, UniProt Q64077); assay: Compound was evaluated for antagonistic activity towards Tachykinin receptor 2 at guinea pig trachea; format: functional, tissue-based; settings: read-out: pA2 (converted)
T2 sequence (Q64077 whole entry): T1 sequence (whole entry)

Emax [1]: 98%
Emax [2]: 93%
Emax [3]: 90%
Kb (Substance-K receptor): 23.4 nM
SMILES: CSCC[C@@H]1NC(=O)C(CC(C)C)NC(=O)C2CNC(=O)C[C@H](NC1=O)C(=O)N[C@@H](Cc1c[nH]c3ccccc13)C(=O)NC(Cc1ccccc1)C(=O)N2 (single isomer, unassigned)
